Assay results reported in publication PMC10714828, “Proteomic analysis of anti-MRSA activity of caerin 1.1/1.9 in a murine skin infection model and their in vitro anti-biofilm effects against Acinetobacter baumannii” (Microbiology Spectrum, 2023).
Like-named read-outs stand apart in the source and are kept apart here.

Columns and labels:
P. aeruginosa (GDM1.443) = assay: MIC by micro-broth dilution (CLSI); type: cell-based,  Pseudomonas aeruginosa; conditions: Fig. 1F; for inhibition of P. aeruginosa growth (in words): MIC test
Experimental: (§1) The MIC of F3 against different bacteria were measured by using a micro-broth dilution method developed by the Clinical and Laboratory Standards Institute ([33]). Briefly, the bacterial suspension with absorbance ranging from 0.08 to 0.10 was prepared and 100 µL of the bacterial suspension to a 96 U-shaped well culture plate. The dalbavancin HCl and sodium fusidate were prepared into 328 µM, polymyxin B was prepared at 840.7 µM with phosphate-buffered saline (PBS). Concentrations of F1 and F3 and of F-K were diluted to […] and 479.8 μM, and they were added into 96-well plates with concentration gradients of 310.5, 155.2, 77.6, 38.8, 19.4, 9.7, and 4.9 µM, respectively, with three replicates for each concentration, the equivalent volume of PBS was added as a growth control. The bacteria were cultured at 37°C for 24 h. The optical density (OD) value at 600 nm was measured with a MULTISKAN GO microplate spectrophotometer.

A. baumannii (GDM1.609) = assay: MIC by micro-broth dilution (CLSI); type: cell-based, Acinetobacter baumannii; conditions: Fig. 1D; for inhibitory activity on A. baumannii (in words): MIC test; for MIC: micro-broth dilution, 37°C, 24 h, OD 600 nm, three replicates
Experimental: as §1

E. coli (GDM1.176) = assay: MIC by micro-broth dilution (CLSI); type: cell-based, Escherichia coli; conditions: for inhibition of E. coli growth (in words): MIC test, Fig. 1E
Experimental: as §1

bacteria = conditions: after repeatedly in vitro culture; cited from earlier work
Description: Moreover, caerin 1.1 has an additive antibacterial effect when used together with caerin 1.9. Caerin 1.1 and caerin 1.9 prepared in the form of a temperature-sensitive gel inhibit MRSA growth in a skin bacterial infecti ...

[1] = pH 5.5; cited from earlier work

| Compound | inhibition of P. aeruginosa growth (in words) (P. aeruginosa (GDM1.443)) | inhibitory activity on A. baumannii (in words) (A. baumannii (GDM1.609)) | inhibition of E. coli growth (in words) (E. coli (GDM1.176)) | MIC (P. aeruginosa (GDM1.443); Pseudomonas aeruginosa, micro-broth dilution, 37°C, 24 h, OD 600 nm, three replicates) [µM] | MIC (A. baumannii (GDM1.609); Acinetobacter baumannii, read-out: MIC) [µM] | MIC (E. coli (GDM1.176); Escherichia coli, 24 h) [µM] | induction of bacterial resistance (bacteria) | MIC (A. baumannii (GDM1.609)) | stability at pH and temperature [1] |
| --- | --- | --- | --- | --- | --- | --- | --- | --- | --- |
| CN[C@H]1C(=O)N[C@@H]2Cc3ccc(cc3)Oc3cc4cc(c3O[C@@H]3O[C@H](C(=O)O)[C@@H](O)[C@H](O)[C@H]3NC(=O)CCCCCCCCC(C)C)Oc3ccc(cc3Cl)[C@@H](O)[C@@H]3NC(=O)[C@H](NC(=O)[C@@H]4NC(=O)[C@@H](NC2=O)c2cc(cc(O)c2Cl)Oc2cc1ccc2O)c1ccc(O)c(c1)-c1c(O[C@H]2O[C@H](CO)[C@@H](O)[C@H](O)[C@@H]2O)cc(O)cc1[C@@H](C(=O)NCCCN(C)C)NC3=O [Dalbavancin, dalbavancin] | incapable of stopping these bacterial growth | no inhibitory activity | incapable of stopping these bacterial growth |  |  |  |  |  |  |
| CC(=O)O[C@H]1C[C@@]2(C)[C@@H](C[C@@H](O)[C@H]3[C@@]4(C)CC[C@@H](O)[C@@H](C)[C@@H]4CC[C@@]32C)/C1=C(\CCC=C(C)C)C(=O)O [Sodium Fusidate, Sodium fusidate] | incapable of stopping these bacterial growth | no inhibitory activity | incapable of stopping these bacterial growth | 78.7 | 19.7 | 78.7 |  |  |  |
| GLFGVLGSIAKHVLPHVVPVIAEKL-NH2 [F3] | suppression of the growth of E. coli and P. aeruginosa at high concentrations | comparable inhibition | suppression of the growth of E. coli and P. aeruginosa at high concentrations |  |  |  | did not induce bacterial resistance | around 5 μM | stable at low pH (5.5–7.4) and room temperature |
| GLLSVLGSVAKHVLPHVVPVIAEHL-NH2 [F1] | suppression of the growth of E. coli and P. aeruginosa at high concentrations | comparable inhibition | suppression of the growth of E. coli and P. aeruginosa at high concentrations |  |  |  |  | around 5 μM | stable at low pH (5.5–7.4) and room temperature |
| PLLLLLPSLLTATL-NH2 [F-K, positive control antimicrobial peptide] | the best at inhibiting these two strains of bacteria | comparable inhibition | the best at inhibiting these two strains of bacteria |  |  |  |  |  |  |
